In PubChem BioAssay (NCI):
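Tested at 5 concentrations; 48 h exposure; 96-well plates; endpoints linearly interpolated, else capped at highest concentration. At the TGI there is no net growth.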

Assays:
Assay in all cases: inhibition of tumour cell growth, NCI panel, 48 h
SW-620 colon = test system: SW-620 colon
RXF 393 renal = test system: RXF 393 renal
HOP-62 NSCLC = test system: HOP-62 NSCLC
MOLT-4 leukemia = test system: MOLT-4 leukemia
TK-10 renal = test system: TK-10 renal
IGROV1 ovarian = test system: IGROV1 ovarian
SF-268 CNS = test system: SF-268 CNS
M14 melanoma = test system: M14 melanoma
A549 NSCLC = test system: A549 NSCLC
MDA-MB-435 = test system: MDA-MB-435
MDA-N = test system: MDA-N
SNB-19 CNS = test system: SNB-19 CNS

O=C(O/N=C1/CCC/C1=C\c1ccccc1)c1ccccc1
TGI (SW-620 colon): > 100 µM
TGI (RXF 393 renal): > 100 µM
TGI (HOP-62 NSCLC): > 100 µM
TGI (MOLT-4 leukemia): 78.1 µM
TGI (TK-10 renal): > 100 µM
TGI (IGROV1 ovarian): > 100 µM
TGI (SF-268 CNS): > 100 µM
TGI (M14 melanoma): > 100 µM
TGI (A549 NSCLC): > 100 µM

CCOC(=O)C1C(C(C)C)C2(C#N)C(=N)OC1(C)C2(C#N)C#N (configuration not stated)
TGI (SW-620 colon): > 100 µM
TGI (RXF 393 renal): > 100 µM
TGI (MDA-MB-435): > 100 µM
TGI (MDA-N): 33.6 µM
TGI (TK-10 renal): > 100 µM
TGI (IGROV1 ovarian): > 100 µM
TGI (SNB-19 CNS): > 100 µM
TGI (SF-268 CNS): > 100 µM
TGI (M14 melanoma): > 100 µM
TGI (A549 NSCLC): > 100 µM

CCOC(=O)C1=C(C)C2C3C(=O)NC(=O)C3C1(C)C1C(=O)NC(=O)C21 (configuration not stated)
TGI (SW-620 colon): > 100 µM
TGI (RXF 393 renal): > 100 µM
TGI (HOP-62 NSCLC): > 100 µM
TGI (MOLT-4 leukemia): > 100 µM
TGI (TK-10 renal): > 100 µM
TGI (IGROV1 ovarian): > 100 µM
TGI (SNB-19 CNS): > 100 µM
TGI (SF-268 CNS): > 100 µM
TGI (M14 melanoma): > 100 µM
TGI (A549 NSCLC): > 100 µM

O=C(/C=C(\O)C(=O)O)/C=C(\O)c1ccccc1Cl
TGI (SW-620 colon): > 100 µM
TGI (RXF 393 renal): > 100 µM
TGI (HOP-62 NSCLC): > 100 µM
TGI (MOLT-4 leukemia): > 100 µM
TGI (TK-10 renal): > 100 µM
TGI (IGROV1 ovarian): > 100 µM
TGI (SNB-19 CNS): > 100 µM
TGI (SF-268 CNS): > 100 µM
TGI (M14 melanoma): > 100 µM
TGI (A549 NSCLC): > 100 µM

CC(=O)CCC(=O)CC(O)(C(F)(F)F)C(F)(F)F
TGI (SW-620 colon): 42.8 µM
TGI (RXF 393 renal): 34.5 µM
TGI (HOP-62 NSCLC): 33.6 µM
TGI (MDA-MB-435): 34.6 µM
TGI (MOLT-4 leukemia): 36.6 µM
TGI (TK-10 renal): 44.1 µM
TGI (IGROV1 ovarian): 31.1 µM
TGI (SNB-19 CNS): 30 µM
TGI (SF-268 CNS): 44.6 µM
TGI (M14 melanoma): 34.9 µM
TGI (A549 NSCLC): 41.9 µM

O=C(/C=C\c1cccc2ccccc12)c1ccc(Br)cc1
TGI (SW-620 colon): 24.4 µM
TGI (HOP-62 NSCLC): > 100 µM
TGI (MOLT-4 leukemia): 82.2 µM
TGI (TK-10 renal): > 100 µM
TGI (IGROV1 ovarian): 46.1 µM
TGI (SNB-19 CNS): 61.1 µM
TGI (SF-268 CNS): 53.1 µM
TGI (M14 melanoma): 32 µM
TGI (A549 NSCLC): > 100 µM

CC1(C)C[C@H]2C3=CC[C@@H]4[C@@]5(C)CC[C@H](O)C(C)(C)[C@@H]5CC[C@@]4(C)[C@]3(C)C[C@@H](O)[C@@]23C[C@@H]1OC3=O
TGI (SW-620 colon): > 100 µM
TGI (HOP-62 NSCLC): > 100 µM
TGI (MDA-MB-435): > 100 µM
TGI (MOLT-4 leukemia): > 100 µM
TGI (TK-10 renal): > 100 µM
TGI (IGROV1 ovarian): > 100 µM
TGI (SNB-19 CNS): > 100 µM
TGI (SF-268 CNS): > 100 µM
TGI (M14 melanoma): > 100 µM
TGI (A549 NSCLC): > 100 µM

Cc1cccc(NC(=O)CSc2nnc(Cc3ccccc3)o2)c1
TGI (SW-620 colon): > 100 µM
TGI (RXF 393 renal): > 100 µM
TGI (HOP-62 NSCLC): > 100 µM
TGI (MOLT-4 leukemia): > 100 µM
TGI (TK-10 renal): > 100 µM
TGI (IGROV1 ovarian): > 100 µM
TGI (SNB-19 CNS): > 100 µM
TGI (SF-268 CNS): > 100 µM
TGI (M14 melanoma): > 100 µM
TGI (A549 NSCLC): > 100 µM

Cc1ccc2nc(CN3CCCCC3)cc(=O)n2c1
TGI (SW-620 colon): > 100 µM
TGI (HOP-62 NSCLC): > 100 µM
TGI (MDA-MB-435): > 100 µM
TGI (MOLT-4 leukemia): > 100 µM
TGI (TK-10 renal): > 100 µM
TGI (IGROV1 ovarian): > 100 µM
TGI (SNB-19 CNS): > 100 µM
TGI (SF-268 CNS): > 100 µM
TGI (M14 melanoma): > 100 µM
TGI (A549 NSCLC): > 100 µM

Cc1ccc(C2=NN(C)COC2C(F)(F)F)cc1 (configuration not stated)
TGI (SW-620 colon): > 100 µM
TGI (RXF 393 renal): > 100 µM
TGI (HOP-62 NSCLC): > 100 µM
TGI (MOLT-4 leukemia): > 100 µM
TGI (IGROV1 ovarian): > 100 µM
TGI (SNB-19 CNS): > 100 µM
TGI (SF-268 CNS): > 100 µM
TGI (M14 melanoma): > 100 µM
TGI (A549 NSCLC): > 100 µM

CC/C(=C/OC)P1(=O)OC(C)(C)CN1C(C)(C)C (configuration not stated)
TGI (SW-620 colon): > 100 µM
TGI (HOP-62 NSCLC): > 100 µM
TGI (MDA-MB-435): > 100 µM
TGI (TK-10 renal): > 100 µM
TGI (IGROV1 ovarian): > 100 µM
TGI (SNB-19 CNS): > 100 µM
TGI (SF-268 CNS): > 100 µM
TGI (M14 melanoma): > 100 µM
TGI (A549 NSCLC): > 100 µM
